Test results from patent US12044683B2, “Methods and compositions concerning intestinal permeability” (THE REGENTS OF THE UNIVERSITY OF CALIFORNIA, priority 2018, dated 2024).
“And” between values parts separate entries of the source, which are not always exact repeats. Equal entries are not always repeated. Marks after values point to notes of the source that are not given here.

Key:
[1] = studies supporting FDA approval for foods, drugs and cosmetics; cited from earlier work
[2] = Blue #1 measured by LC/MS in blood/plasma after enteral administration (intestinal permeability test); format: in vivo, human; parameters: Blue #1 in blood sample, 2 H / Blue #1 in blood sample, 8 H: unit not given here; conditions: for Blue #1 in blood sample, 2 H: 2 H after dose; for Blue #1 in blood sample, 8 H: 8 H after dose
Protocol: High dose: 0.5 mg/kg—e.g, 35 mg in a 70 kg adult, administered as 35 ml of diluted food coloring solution (16 mg/mL diluted 1:16) was used. Five blood samples were drawn per subject (5 ml/draw): 0 hour-prior to dose, 1 hour, 2 hours, 4 hours, 8 hours. Four subjects enrolled. […]
Test subjects with clinically determined sepsis were given enteral Blue #1 at a designated time prior to scheduled blood draw. […] Sepsis was defined by the Surviving Sepsis Campaign [Crit Care Med. 2013; 41(2):580] (presence, probable or documented, of infection together with systemic manifestations such as fever, tachycardia, leukocytosis, hypotension, organ dysfunction, or decreased tissue perfusion). […] The medium dose was: 0.05 mg/kg—e.g. 3.5 mg in a 70 kg adult, administered as 35 mL of diluted food coloring solution (0.1 mg/mL), The low dose was: 0.005 mg/kg—e.g. 0.35 mg in a 70 kg, administered as 35 ml of diluted food coloring solution (0.01 mg/ml). Five blood draws per subject (5 ml/draw): 0 hour—prior to dose, 1 hour, 2 hours, 4 hours, and 8 hours, through clinically indicated, previously placed IV catheters. 14 subjects were used in this study.
Plasma concentration of Blue-1 is shown in relation to time in two patients (10-26-16) and (11-14-16) diagnosed with sepsis. Plasma preparation was done as shown in Example 5C below. Bzi-Arg_pNA was used as a STD. The data obtained is shown in Tables 2 and 3 below and in FIG. 3. The standard graph is FIG. 4.
Subjects were asked to drink a blue food coloring solution, (GATORADE for example) at 0.5 mg/kg (35 ml for a 70 kg human subject). Then a blood sample was drawn (e.g. 5 ml) at five different time periods for each subject: immediately before the drink (time zero), 1 hour, 2 hour, 4 hour and 8 hours after the drink. Subjects in Group 2 also had some of their abdominal fluid from the paracentesis saved to analyze for the presence of the dye, Plasma was prepared according to the method in the following example.
1) one volume of plasma was mixed with 3 volumes of (1:3→IPA:CAN+0.1% TFA);
2) after spin-down, 1800 μl of supernatant was evaporated (for example, by a Speed-Vac)
4) 10 μl of the re-suspended residue was injected onto a mass spectrophotometer for each analysis which corresponds to 25 μl of “pure plasma”. Quantitative analysis of the peak corresponding to the mass of Blue #1 was performed to see how much of the dye had been absorbed. Bzl-Arg_pNA is an example of a standard that worked with this assay.

[3] = rats; Brown 1980; cited from earlier work
[4] = Solubility in resuspension solvents (NMP, water); format: physicochemical; conditions: NMP and water (50% NMP in water used for resuspension)
fruit flies = conditions: fruit fly bodies viewed under a microscope after being given the dye; cited from earlier work
[5] = Non-septic 1, ICU, no vasopressor, MELD 40, Eating
[6] = Non-septic 2, ICU, no vasopressor, MELD 33, Eating
[7] = Non-septic 3, ICU, no vasopressor, MELD 17, Eating
[8] = Non-septic 4, ICU/Pressor, NE 0.4, MELD 36, Eating
[9] = Normal 1, Normal, no vasopressor, MELD 6, NPO
[10] = Normal 2, Normal, no vasopressor, MELD 6, NPO
[11] = Normal 3, Normal, no vasopressor, MELD 6, NPO
[12] = Normal 4, Normal, no vasopressor, MELD 6, NPO
[13] = Septic 1, ICU/Pressor, NE 0.12, MELD 34, NPO × meds
[14] = Septic 3 (first line so labelled, r15), ICU/Pressor, NE 0.12, MELD 39, NPO × meds
[15] = Septic 3 (second line so labelled, r17), ICU/Pressor, Vaso 4, NE 0.09, PhE 25, MELD 35, NPO × meds
[16] = Septic 4, ICU/Pressor, NE 0.25, MELD 40, NPO × meds
[17] = Septic 5, ICU/Pressor, NE 0.02, MELD 23, Eating
[18] = Septic 6, ICU/Pressor, Vaso 2, MELD 43, NPO × meds
[19] = sepsis patient of Table 2, 1 hr after ingestion
[20] = sepsis patient of Table 2, 2 hr after ingestion
[21] = sepsis patient of Table 2, 4 hr after ingestion
[22] = sepsis patient of Table 2, 8 hr after ingestion
[23] = sepsis patient of Table 3, 1 hr after ingestion
[24] = sepsis patient of Table 3, 2 hr after ingestion
[25] = sepsis patient of Table 3, 4 hr after ingestion
[26] = sepsis patient of Table 3, 8 hr after ingestion

Structure (SMILES): CCN(Cc1cccc(S(=O)(=O)[O-])c1)c1ccc(C(=C2C=CC(=[N+](CC)Cc3cccc(S(=O)(=O)[O-])c3)C=C2)c2ccccc2S(=O)(=O)[O-])cc1.[Na+].[Na+] [Blue #1, disodium;2-[[4-[ethyl-[(3-sulfonatophenyl)methyl]amino]phenyl]-[4-[ethyl-[(3-sulfonatophenyl)methyl]azaniumlidene]cyclohexa-2,5-dien-1-ylidene]methyl]benzenesulfonate]
- Acceptable daily intake [1]: 12 mg/kg body weight/day
- Blue #1 in blood sample, 2 H [2, 5]: 0.5
- Blue #1 in blood sample, 8 H [2, 5]: 0.15
- Blue #1 in blood sample, 2 H [2, 6]: <0.05
- Blue #1 in blood sample, 8 H [2, 6]: <0.05
- Blue #1 in blood sample, 2 H [2, 7]: <0.05
- Blue #1 in blood sample, 8 H [2, 7]: <0.05
- Blue #1 in blood sample, 2 H [2, 8]: <0.05
- Blue #1 in blood sample, 8 H [2, 8]: <0.05
- Blue #1 in blood sample, 2 H [2, 9]: <0.05
- Blue #1 in blood sample, 8 H [2, 9]: <0.05
- Blue #1 in blood sample, 2 H [2, 10]: <0.05
- Blue #1 in blood sample, 8 H [2, 10]: <0.05
- Blue #1 in blood sample, 2 H [2, 11]: <0.05
- Blue #1 in blood sample, 8 H [2, 11]: <0.05
- Blue #1 in blood sample, 2 H [2, 12]: <0.05
- Blue #1 in blood sample, 8 H [2, 12]: <0.05
- Blue #1 in blood sample, 2 H [2, 13]: 0.5
- Blue #1 in blood sample, 8 H [2, 13]: 0.3
- Blue #1 in blood sample, 2 H [2, 14]: 0.7
- Blue #1 in blood sample, 8 H [2, 14]: 0.5
- Blue #1 in blood sample, 2 H [2, 15]: <0.05
- Blue #1 in blood sample, 8 H [2, 15]: <0.05
- Blue #1 in blood sample, 2 H [2, 16]: 2.5
- Blue #1 in blood sample, 8 H [2, 16]: 4.6**
- Blue #1 in blood sample, 2 H [2, 17]: 0.4
- Blue #1 in blood sample, 8 H [2, 17]: 0.05
- Blue #1 in blood sample, 2 H [2, 18]: 1
- Blue #1 in blood sample, 8 H [2, 18]: 1.5
- Detectability of Blue #1 by LC/MS (FIG. 2, upper graph) ([2]; non-septic patient): not detectable
- Absorption into blood in normal subjects ([2]; normal subjects (four enrolled), high dose 0.5 mg/kg oral, up to 8 hours later): wasn't any detectable absorption
- Plasma concentration of Blue-1, Average [2, 19]: 1.41 nM (nM)
- Plasma concentration of Blue-1, replicates A, B, C [2, 19]: 1.81 fMoles/μl (nM) and 1.13 fMoles/μl (nM) and 1.29 fMoles/μl (nM)
- Plasma concentration of Blue-1, Average [2, 20]: 2.59 nM (nM)
- Plasma concentration of Blue-1, replicates A, B, C [2, 20]: 2.17 fMoles/μl (nM) and 2.89 fMoles/μl (nM) and 2.72 fMoles/μl (nM)
- Plasma concentration of Blue-1, Average [2, 21]: 2.03 nM (nM)
- Plasma concentration of Blue-1, replicates A, B, C [2, 21]: 2.30 fMoles/μl (nM) and 1.75 fMoles/μl (nM) and 2.05 fMoles/μl (nM)
- Plasma concentration of Blue-1, Average [2, 22]: 2.18 nM (nM)
- Plasma concentration of Blue-1, replicates A, B, C [2, 22]: 2.44 fMoles/μl (nM) and 2.04 fMoles/μl (nM) and 2.05 fMoles/μl (nM)
- Plasma concentration of Blue-1, Average [2, 23]: 1.17 nM (nM)
- Plasma concentration of Blue-1, replicates A, B, C [2, 23]: 1.09 fMoles/μl (nM) (2×) and 1.33 fMoles/μl (nM)
- Plasma concentration of Blue-1, Average [2, 24]: 2.29 nM (nM)
- Plasma concentration of Blue-1, replicates A, B, C [2, 24]: 2.40 fMoles/μl (nM) and 2.28 fMoles/μl (nM) and 2.18 fMoles/μl (nM)
- Plasma concentration of Blue-1, Average [2, 25]: 2.67 nM (nM)
- Plasma concentration of Blue-1, replicates A, B, C [2, 25]: 2.53 fMoles/μl (nM) and 2.29 fMoles/μl (nM) and 3.19 fMoles/μl (nM)
- Plasma concentration of Blue-1, Average [2, 26]: 3.37 nM (nM)
- Plasma concentration of Blue-1, replicates A, B, C [2, 26]: 3.50 fMoles/μl (nM) and 3.04 fMoles/μl (nM) and 358 fMoles/μl (nM)
- Detectability of Blue #1 by LC/MS (FIG. 2, lower graph) ([2]; septic patient): detectable
- Share of the dye absorbed into the blood from the intestine [3]: more than 0.02%
- Solubility [4]: soluble in both
- Absorption by fruit flies (fruit flies): not to be absorbed
